The subject of this assay is phosphorylated PKC (pPKC). Briefly: Mouse enteroid experiment, pPKC Western blot. The assay is classed as cell-based. The following applies: DGK inhibitor 2 μM in the presence of wild-type L. reuteri PTA-6475 conditioned media, 45 min. The procedure: FIGS. 5a and 5b illustrate that a commercially available DagK inhibitor (DGK inhi) prevents L. reuteri derived-DagK mediated protein kinase C (PKC) phosphorylation in mouse enteroids. FIG. 5a illustrates a Western blot analysis showing proteins isolated from mouse ileal enteroids of 10 week-old germ free (GF) male mice treated with only media control (LDM-4), WT Lr (WT Lr grown in LDM4), DagK inhibitor and DagK inhibitor with WT Lr for 45 min targeting mammalian phosphorylated PKC (pPKC). 10 μg proteins were loaded into each well of an SDS gel. The pPKC synthesis ratio was obtained by image-J analysis where pPKC of […] was set to 1 and used as baseline. FIG. 5b Mean values of n=3 showing pPKC protein concentration (loaded 10 μg) and quantified by densitometry using image-J. GF control groups were set to 1. *P<0.05, **P<0.01, ***P<0.001. n=10 mice per group. One-Way analysis of variance with Bonferroni correction.
Mouse enteroids (contains only intestinal epithelial layer) were derived from 10 week-old germ free (GF) BALB/c mouse. The enteroids were grown to form a monolayer and were induced with LDM4 media (control), wild-type L. reuteri PTA-6475 conditioned media (50 to 3 kDa cut off), diacylglycerol kinase (DGK) inhibitor (2 μM) only or DGK inhibitor (2 μM) with wild-type L. reuteri PTA-6475 conditioned media (CM; 50 to 3 kDa cut off). […]
On the technique in general: A western blot detects proteins with antibodies after separation by electrophoresis.

Data on one compound can be found in patent US12201656B2, “Selection of bacterial strains useful in allergy treatment” (BioGaia AB, priority 2016, dated 2025).

With `Cc1nc2sccn2c(=O)c1CCN1CCC(=C(c2ccccc2)c2ccc(F)cc2)CC1` [DGK inhibitor, 6-[2-(4-[(4-fluorophenyl)phenylmethylene]-1-piperidinyl)ethyl]-7-methyl-5H-thiazolo-[3,2-a]pyrimidine-5-one], the PKC phosphorylation entry is recorded as “increased PKC phosphorylation”.
